Data reported in ChEMBL document CHEMBL5150077, “Identification of TUL01101: A Novel Potent and Selective JAK1 Inhibitor for the Treatment of Rheumatoid Arthritis” (J Med Chem, 2022).
pIC50: −log10 of the molar value. Activity calls are given as the source filed them. The calls are words filed in the database; no cut-off is given here.

Legend:
[1] = Microsomal stability in human liver microsomes assessed as intrinsic clearance at 1 uM incubated for 60 mins in presence of NADPH regenerating system by LC-MS/MS analysis; assay type: ADME, Microsome; details: read-out: CLH
[2] = molecular target: Tyrosine-protein kinase JAK2 (Homo sapiens, UniProt O60674); test: Inhibition of recombinant human JAK2 using KTFCGTPEYLAPEVRREPRILSEEEQEMFRDFDYIADWC as substrate incubated for 40 mins in presence of Mg/ATP mixture by [gamma p33]-ATP based scintillation counting method
Sequence of Tyrosine-protein kinase JAK2 (O60674 whole entry): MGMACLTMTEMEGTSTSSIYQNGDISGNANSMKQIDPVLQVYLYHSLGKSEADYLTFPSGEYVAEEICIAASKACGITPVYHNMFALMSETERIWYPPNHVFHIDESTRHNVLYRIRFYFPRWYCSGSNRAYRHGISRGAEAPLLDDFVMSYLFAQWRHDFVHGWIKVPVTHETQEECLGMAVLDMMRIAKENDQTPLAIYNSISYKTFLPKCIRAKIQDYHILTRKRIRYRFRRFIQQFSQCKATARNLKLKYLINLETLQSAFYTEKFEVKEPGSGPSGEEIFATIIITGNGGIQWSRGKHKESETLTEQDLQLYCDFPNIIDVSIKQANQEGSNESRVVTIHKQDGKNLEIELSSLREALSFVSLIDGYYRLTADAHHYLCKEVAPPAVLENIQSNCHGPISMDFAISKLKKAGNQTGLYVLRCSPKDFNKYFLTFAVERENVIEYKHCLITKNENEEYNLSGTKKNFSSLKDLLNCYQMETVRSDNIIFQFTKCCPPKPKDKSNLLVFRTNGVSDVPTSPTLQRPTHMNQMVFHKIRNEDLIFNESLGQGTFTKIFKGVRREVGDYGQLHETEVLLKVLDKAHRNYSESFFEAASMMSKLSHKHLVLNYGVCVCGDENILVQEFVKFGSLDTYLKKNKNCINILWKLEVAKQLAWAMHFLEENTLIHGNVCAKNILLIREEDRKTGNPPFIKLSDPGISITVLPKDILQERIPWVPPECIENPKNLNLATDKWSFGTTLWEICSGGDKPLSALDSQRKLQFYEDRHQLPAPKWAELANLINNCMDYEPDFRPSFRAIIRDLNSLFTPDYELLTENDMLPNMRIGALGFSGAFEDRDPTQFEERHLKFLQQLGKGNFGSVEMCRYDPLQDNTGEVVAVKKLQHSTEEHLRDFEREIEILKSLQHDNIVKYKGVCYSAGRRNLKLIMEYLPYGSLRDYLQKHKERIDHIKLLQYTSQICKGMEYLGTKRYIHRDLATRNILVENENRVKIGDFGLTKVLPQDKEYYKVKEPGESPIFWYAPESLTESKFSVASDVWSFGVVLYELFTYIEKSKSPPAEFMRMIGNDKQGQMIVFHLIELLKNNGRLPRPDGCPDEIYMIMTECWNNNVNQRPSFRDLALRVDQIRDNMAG

[3] = Apparent permeability across apical to basolateral side in human Caco-2 cells at 10 uM measured after 120 mins by LC-MS/MS analysis; details: Caco-2
[4] = molecular target: Cytochrome P450 2D6 (Homo sapiens, UniProt P10635); test: Inhibition of CYP2D6 in human liver microsomes incubated in presence NADPH by LC-MS/MS analysis
Sequence of Cytochrome P450 2D6 (P10635 whole entry): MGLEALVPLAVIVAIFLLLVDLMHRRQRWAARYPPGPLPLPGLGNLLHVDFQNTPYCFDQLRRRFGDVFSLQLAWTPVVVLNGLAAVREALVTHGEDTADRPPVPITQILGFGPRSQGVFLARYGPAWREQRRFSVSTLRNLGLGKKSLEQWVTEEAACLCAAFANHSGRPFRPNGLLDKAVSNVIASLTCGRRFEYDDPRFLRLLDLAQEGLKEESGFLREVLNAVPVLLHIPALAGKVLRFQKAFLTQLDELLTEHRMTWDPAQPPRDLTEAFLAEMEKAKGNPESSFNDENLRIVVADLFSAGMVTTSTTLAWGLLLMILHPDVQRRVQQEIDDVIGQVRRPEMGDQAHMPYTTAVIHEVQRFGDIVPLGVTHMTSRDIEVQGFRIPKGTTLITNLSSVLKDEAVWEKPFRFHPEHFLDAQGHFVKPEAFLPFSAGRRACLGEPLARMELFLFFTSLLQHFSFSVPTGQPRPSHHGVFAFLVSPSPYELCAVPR

[5] = Apparent permeability across basolateral to apical side in human Caco-2 cells at 10 uM measured after 120 mins by LC-MS/MS analysis
[6] = molecular target: T1, Tyrosine-protein kinase JAK3 (Homo sapiens, UniProt P52333); test: Inhibition of recombinant human JAK3 using GGEEEEYFELVKKKK as substrate incubated for 40 mins in presence of Mg/ATP mixture by [gamma p33]-ATP based scintillation counting method
T1 sequence (P52333 whole entry): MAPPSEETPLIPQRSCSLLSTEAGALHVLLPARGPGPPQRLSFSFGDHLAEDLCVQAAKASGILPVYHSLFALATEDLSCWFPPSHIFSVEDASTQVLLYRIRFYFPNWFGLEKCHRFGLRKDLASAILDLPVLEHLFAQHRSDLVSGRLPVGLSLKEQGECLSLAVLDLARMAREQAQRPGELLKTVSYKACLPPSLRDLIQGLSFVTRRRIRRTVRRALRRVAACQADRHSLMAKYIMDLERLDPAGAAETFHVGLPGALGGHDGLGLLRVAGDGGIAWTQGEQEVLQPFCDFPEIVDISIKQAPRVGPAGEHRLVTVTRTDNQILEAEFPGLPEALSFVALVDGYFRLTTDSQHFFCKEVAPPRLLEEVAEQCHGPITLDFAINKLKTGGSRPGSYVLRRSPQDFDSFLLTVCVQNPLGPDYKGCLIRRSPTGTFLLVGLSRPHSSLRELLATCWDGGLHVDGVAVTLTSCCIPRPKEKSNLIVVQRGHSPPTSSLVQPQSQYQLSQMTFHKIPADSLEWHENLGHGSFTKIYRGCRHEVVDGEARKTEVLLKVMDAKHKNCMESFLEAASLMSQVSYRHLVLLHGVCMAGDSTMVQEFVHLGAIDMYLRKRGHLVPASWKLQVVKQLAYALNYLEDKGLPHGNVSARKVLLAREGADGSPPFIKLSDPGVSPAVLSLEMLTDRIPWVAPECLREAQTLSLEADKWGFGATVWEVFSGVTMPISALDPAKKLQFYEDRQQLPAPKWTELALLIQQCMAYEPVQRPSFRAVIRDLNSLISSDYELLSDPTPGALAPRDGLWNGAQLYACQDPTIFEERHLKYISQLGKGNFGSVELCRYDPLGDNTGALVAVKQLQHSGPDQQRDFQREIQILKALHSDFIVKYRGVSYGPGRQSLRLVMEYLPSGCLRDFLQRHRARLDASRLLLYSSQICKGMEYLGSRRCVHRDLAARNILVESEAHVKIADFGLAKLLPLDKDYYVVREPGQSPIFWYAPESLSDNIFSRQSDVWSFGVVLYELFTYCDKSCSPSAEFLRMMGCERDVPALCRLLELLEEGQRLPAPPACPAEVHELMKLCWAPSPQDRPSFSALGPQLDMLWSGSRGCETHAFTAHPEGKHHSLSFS

[7] = Plasma protein binding in rat assessed as unbound fraction at 2 uM incubated for 4 hrs by LC/MS/MS based balanced dialysis method
[8] = Plasma protein binding in human assessed as unbound fraction at 2 uM incubated for 4 hrs by LC/MS/MS based balanced dialysis method
[9] = molecular target: Cytochrome P450 2C19 (Homo sapiens, UniProt P33261); test: Inhibition of CYP2C19 in human liver microsomes incubated in presence NADPH by LC-MS/MS analysis
Sequence of Cytochrome P450 2C19 (P33261 whole entry): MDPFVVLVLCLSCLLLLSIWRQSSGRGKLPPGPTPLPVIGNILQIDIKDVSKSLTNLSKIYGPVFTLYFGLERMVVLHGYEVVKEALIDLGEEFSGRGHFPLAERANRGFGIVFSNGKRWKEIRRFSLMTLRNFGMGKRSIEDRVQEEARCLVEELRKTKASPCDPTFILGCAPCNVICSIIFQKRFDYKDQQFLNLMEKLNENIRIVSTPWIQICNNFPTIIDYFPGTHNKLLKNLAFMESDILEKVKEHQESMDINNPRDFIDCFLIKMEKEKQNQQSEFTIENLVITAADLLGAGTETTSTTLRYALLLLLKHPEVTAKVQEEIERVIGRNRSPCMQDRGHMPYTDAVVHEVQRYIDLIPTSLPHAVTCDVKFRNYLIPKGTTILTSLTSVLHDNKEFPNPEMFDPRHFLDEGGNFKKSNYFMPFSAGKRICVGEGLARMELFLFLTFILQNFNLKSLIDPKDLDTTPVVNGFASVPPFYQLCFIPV

[10] = molecular target: Non-receptor tyrosine-protein kinase TYK2 (Homo sapiens, UniProt P29597); test: Inhibition of recombinant human TYK2 using GGMEDIYFEFMGGKKK as substrate incubated for 40 mins in presence of Mg/ATP mixture by [gamma p33]-ATP based scintillation counting method
Sequence of Non-receptor tyrosine-protein kinase TYK2 (P29597 whole entry): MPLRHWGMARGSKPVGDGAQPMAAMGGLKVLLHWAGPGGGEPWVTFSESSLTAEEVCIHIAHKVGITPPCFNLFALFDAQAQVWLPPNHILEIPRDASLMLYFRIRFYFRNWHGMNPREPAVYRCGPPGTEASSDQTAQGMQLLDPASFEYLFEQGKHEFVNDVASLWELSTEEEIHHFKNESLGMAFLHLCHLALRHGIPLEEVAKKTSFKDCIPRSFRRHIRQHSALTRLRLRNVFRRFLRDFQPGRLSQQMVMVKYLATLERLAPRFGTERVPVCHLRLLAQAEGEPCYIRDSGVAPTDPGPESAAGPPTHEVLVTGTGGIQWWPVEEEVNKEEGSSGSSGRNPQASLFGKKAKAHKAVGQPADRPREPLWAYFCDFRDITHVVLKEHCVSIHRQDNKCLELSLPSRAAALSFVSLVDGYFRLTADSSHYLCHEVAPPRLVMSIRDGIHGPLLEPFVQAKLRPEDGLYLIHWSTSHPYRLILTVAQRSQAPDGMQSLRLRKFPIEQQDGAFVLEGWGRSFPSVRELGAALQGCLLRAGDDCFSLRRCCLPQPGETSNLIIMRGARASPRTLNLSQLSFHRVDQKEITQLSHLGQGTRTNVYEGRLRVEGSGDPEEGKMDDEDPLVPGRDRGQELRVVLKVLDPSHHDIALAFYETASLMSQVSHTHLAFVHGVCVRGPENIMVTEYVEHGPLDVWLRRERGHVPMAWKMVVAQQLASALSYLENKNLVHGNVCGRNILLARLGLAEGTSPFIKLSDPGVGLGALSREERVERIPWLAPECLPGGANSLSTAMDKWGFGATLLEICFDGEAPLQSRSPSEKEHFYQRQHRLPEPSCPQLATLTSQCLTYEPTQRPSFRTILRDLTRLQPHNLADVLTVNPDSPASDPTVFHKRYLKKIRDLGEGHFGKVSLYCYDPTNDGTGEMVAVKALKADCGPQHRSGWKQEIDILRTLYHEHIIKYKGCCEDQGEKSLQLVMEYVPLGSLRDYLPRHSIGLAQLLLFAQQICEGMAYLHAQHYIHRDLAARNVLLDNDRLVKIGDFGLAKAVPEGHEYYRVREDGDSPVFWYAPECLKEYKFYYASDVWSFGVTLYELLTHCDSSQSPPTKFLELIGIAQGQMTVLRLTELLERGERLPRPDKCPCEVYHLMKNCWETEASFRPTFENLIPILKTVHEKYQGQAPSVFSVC

[11] = species on record: Homo sapiens; test: Selectivity index, ratio of IC50 for inhibition of recombinant human TYK2 to IC50 for inhibition of recombinant human JAK1
[12] = Clearance in C57BL/6 mouse at 2 mg/kg, iv measured for 24 hrs by LC/MS/MS analysis; assay type: ADME, organism-based; details: in vivo
[13] = molecular target: Insulin-like growth factor 1 receptor (Homo sapiens) (UniProt P08069); test: Inhibition of human IGF1R assessed as residual activity at 30 uM relative to control
Sequence of Insulin-like growth factor 1 receptor (Homo sapiens) (P08069 31-736 limits assumed): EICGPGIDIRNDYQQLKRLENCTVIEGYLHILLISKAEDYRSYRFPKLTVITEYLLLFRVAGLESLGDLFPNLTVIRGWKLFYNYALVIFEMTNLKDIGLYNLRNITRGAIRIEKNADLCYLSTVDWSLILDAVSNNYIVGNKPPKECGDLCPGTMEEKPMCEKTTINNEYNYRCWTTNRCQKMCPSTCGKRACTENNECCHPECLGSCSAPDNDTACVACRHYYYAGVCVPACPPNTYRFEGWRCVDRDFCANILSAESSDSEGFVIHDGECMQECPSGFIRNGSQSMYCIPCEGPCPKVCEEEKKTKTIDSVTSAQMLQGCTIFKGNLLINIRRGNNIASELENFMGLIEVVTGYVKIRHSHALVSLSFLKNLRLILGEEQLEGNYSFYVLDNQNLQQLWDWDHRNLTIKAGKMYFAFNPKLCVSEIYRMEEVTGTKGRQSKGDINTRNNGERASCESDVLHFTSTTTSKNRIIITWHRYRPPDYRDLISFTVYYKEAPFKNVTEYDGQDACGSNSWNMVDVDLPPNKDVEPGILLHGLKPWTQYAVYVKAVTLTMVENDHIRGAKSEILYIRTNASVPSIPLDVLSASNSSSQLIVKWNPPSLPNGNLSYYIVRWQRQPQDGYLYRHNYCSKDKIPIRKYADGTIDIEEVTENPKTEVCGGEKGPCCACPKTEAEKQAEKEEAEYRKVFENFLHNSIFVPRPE
Sequence of Insulin-like growth factor 1 receptor (Homo sapiens) (P08069 741-1367 limits assumed): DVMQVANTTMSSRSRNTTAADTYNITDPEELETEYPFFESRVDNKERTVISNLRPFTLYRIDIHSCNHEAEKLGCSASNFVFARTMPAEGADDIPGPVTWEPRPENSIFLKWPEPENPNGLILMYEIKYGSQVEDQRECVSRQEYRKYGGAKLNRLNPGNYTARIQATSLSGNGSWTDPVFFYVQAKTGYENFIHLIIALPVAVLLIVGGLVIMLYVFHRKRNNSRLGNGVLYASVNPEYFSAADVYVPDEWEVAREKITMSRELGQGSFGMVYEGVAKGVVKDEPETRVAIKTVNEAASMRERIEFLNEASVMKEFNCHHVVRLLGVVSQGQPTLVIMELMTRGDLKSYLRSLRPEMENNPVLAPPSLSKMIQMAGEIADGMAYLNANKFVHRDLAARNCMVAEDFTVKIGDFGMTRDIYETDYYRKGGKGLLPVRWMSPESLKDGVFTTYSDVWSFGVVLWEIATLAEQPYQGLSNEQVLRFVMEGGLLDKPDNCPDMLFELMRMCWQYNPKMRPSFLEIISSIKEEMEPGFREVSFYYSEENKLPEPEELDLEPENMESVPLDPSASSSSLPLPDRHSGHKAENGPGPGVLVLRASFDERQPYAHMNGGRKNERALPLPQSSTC

[14] = molecular target: Tyrosine-protein kinase Lck (Homo sapiens) (UniProt P06239); test: Inhibition of human LCK assessed as residual activity at 30 uM relative to control
[15] = tested on: Mus musculus; test: Antiarthritic activity in collagen-induced rheumatoid arthritis DBA/1 mouse model assessed as reduction in clinical score AUC at 15 mg/kg, po BID administered for 14 days starting from 7 days before immunization to 21 days after immunization and measured on day 41 post immunization; assay type: functional, organism-based; details: time 14.0 day
[16] = molecular target: High affinity nerve growth factor receptor (Homo sapiens) (UniProt P04629); test: Inhibition of human TRK assessed as residual activity at 30 uM relative to control
[17] = AUC in Sprague-Dawley rat at 10 mg/kg, po measured for 24 hrs by LC-MS/MS analysis; assay type: ADME, organism-based; set-up: time 24 hrs, dose 10 mg/kg, route po; details: in vivo
[18] = tested on: Rattus norvegicus; test: Antiarthritic activity in adjuvant-induced arthritis rat model assessed as clinical score at 1 mg/kg, po administered twice a day for 14 days starting from day 13 to 27 post immunization and measured every 3 days a week; assay type: functional; details: time 14 day
[19] = tested on: Mus musculus; test: Antiarthritic activity in collagen-induced rheumatoid arthritis DBA/1 mouse model assessed as recovery of body weight at 15 mg/kg, po BID administered for 14 days starting from 7 days before immunization to 21 days after immunization and measured on day 22 post immunization; assay type: functional, organism-based; details: time 14.0 day
[20] = molecular target: Ephrin type-A receptor 2 (Homo sapiens) (UniProt P29317); test: Inhibition of human EPHA2 assessed as residual activity at 30 uM relative to control
[21] = Elimination half life in C57BL/6 mouse at 15 mg/kg, po measured for 24 hrs by LC/MS/MS analysis; assay type: ADME, organism-based; details: in vivo, read-out: beta t1/2 (converted)
[22] = in vivo; details: C57BL/6, mouse, po, 15 mg/kg
[23] = AUC in C57BL/6 mouse at 15 mg/kg, po measured for 24 hrs by LC/MS/MS analysis; assay type: ADME, organism-based; set-up: dose 15 mg/kg, time 24 hrs, route po; details: in vivo
[24] = in vivo; details: C57BL/6, mouse, po, 15 mg/kg; remark: listed apart in the source

SMILES	microsomal CLint at 1 µM [1]	pIC50 [2]	Papp A→B at 2 h, 10 µM [3]	pIC50 [4]	Papp B→A at 2 h, 10 µM [5]	pIC50 [6]	fraction unbound at 4 h, 2 µM [7]	fraction unbound at 4 h, 2 µM [8]	pIC50 [9]	pIC50 [10]	Ratio IC50 [11]	clearance [12]	Activity [15]	Activity [19]	half-life [21]	Cmax at 24 h [22]	AUC at 24 h [23]	bioavailability at 24 h [24]	also measured
O=C(Nc1nc2cccc(C3CCC4(CC3)CCN(C(=O)[C@@H]3CC3(F)F)C4)n2n1)C1CC1 (stereo partly drawn)	11.3 µL/min/mg	6.49	1.6 ×10⁻⁶ cm/s	< 4.00	31.2 ×10⁻⁶ cm/s	5.24	0.205	0.088	4.19	7.17	2.2								
O=C(Nc1nc2cccc(C3CCC4(CC3)CN(C(=O)[C@@H]3CC3(F)F)C4)n2n1)C1CC1	< 9.6 µL/min/mg						0.26	0.176				22.1 mL/min/kg	Active	Active	2.01 h				Activity [13]: 129%; Activity [14]: 74%; Activity [16]: 89%; AUC at 24 h [17]: 19600 ng·h/mL; Activity [18]: 5.4; Activity [20]: 102%
O=C(Nc1nc2cccc(C3CCC4(CC3)CCN(C(=O)[C@@H]3CC3(F)F)CC4)n2n1)C1CC1	< 9.6 µL/min/mg	7.40	4.29 ×10⁻⁶ cm/s	< 4.00	29.1 ×10⁻⁶ cm/s	6.00	0.067	0.056	5.31	7.59	8.7	14.9 mL/min/kg	Active	Active	4.74 h	7.38 µM	18 µM·h	50.1%	
O=C(Nc1nc2cccc([C@H]3CC[C@@H](NC(=O)[C@@H]4CC4(F)F)CC3)n2n1)C1CC1	[…]	[…]	[…]	[…]	[…]	[…]	0.156	0.085	4.12	7.62	[…]	[…]			1.5 h	25.7 µM	54.1 µM·h	[…]	
